Source: article PMC12477080, “Polychlorinated biphenyls (PCBs) interact with drug metabolism in vivo” (Archives of Toxicology, 2025)

Tests used:
[1] = target: T1, HEK293 cells overexpressing CYP1A2 (Homo sapiens, UniProt P05177); assay: CYP1A2 activity in transgenic HEK293 cells (phenacetin probe); format: cell-based; conditions: 0.1, 0.5, 1 µM PCB118, 30 min, then 10 µM phenacetin 1 h
T1 construct: expressed in transfected cells; host or cells: HEK293
T1 sequence (P05177 1-516): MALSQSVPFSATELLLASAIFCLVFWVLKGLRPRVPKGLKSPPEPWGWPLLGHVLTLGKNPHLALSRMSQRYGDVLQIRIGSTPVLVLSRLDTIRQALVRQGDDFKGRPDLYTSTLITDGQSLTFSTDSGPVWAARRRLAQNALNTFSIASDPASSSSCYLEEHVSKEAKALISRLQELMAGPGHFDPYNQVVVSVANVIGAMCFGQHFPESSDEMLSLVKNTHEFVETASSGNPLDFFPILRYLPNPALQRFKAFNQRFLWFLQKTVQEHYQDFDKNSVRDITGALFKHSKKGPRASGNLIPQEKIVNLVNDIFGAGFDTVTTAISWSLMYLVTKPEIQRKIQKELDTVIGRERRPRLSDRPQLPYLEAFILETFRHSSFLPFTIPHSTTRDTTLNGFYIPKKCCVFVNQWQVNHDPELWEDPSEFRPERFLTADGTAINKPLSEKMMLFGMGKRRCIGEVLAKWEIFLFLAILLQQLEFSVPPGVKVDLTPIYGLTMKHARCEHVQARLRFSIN

CYP2B6 = assay: CYP phenotyping cocktail clinical study: efavirenz/8-OH-efavirenz metabolic ratio and its association with PCB plasma levels; conditions: linear regression of MR AUC0–8 h 8-OH-efavirenz/efavirenz (CYP2B6 activity) on PCB plasma concentration
Procedure: The participants were ascertained not to have any acute disease by medical history, physical examination, laboratory screening, including hematological and biochemical blood tests, and a 12-lead electrocardiogram. […] The demographic data of the subjects are summarized in Table 1 in the supplemental data. At the enrollment visit, 2 blood samples (9 ml each) were collected into ethylenediaminetetraacetic acid (EDTA)-containing tubes taken from each subject for analyzing the plasma concentrations of PCB congeners and for pharmacogenetic analysis.
Participants stayed fasted from the evening before until 3 h after drug administration. After that, a meal was provided. Water and juice were permitted but alcoholic and caffeinated beverages were not allowed from the evening before drug administration until the last blood sample was taken on the next day. Venous blood samples (9 ml each) were collected through an intravenous catheter immediately before and 0.25, 0.5, 0.75, 1, 1.5, 2, 2.5, 3, 4, 5, 6, 7, 8, and 24 h after drug administration. Blood was drawn into EDTA-coated tubes, centrifuged at 1500 g for 10 min at 4 °C, and plasma samples were subsequently stored at − 80 °C until further analysis. After completely voiding the bladder immediately before drug administration, the participants collected urine from 0 to 24 h after drug administration. After weighing the collected urine, a 10 ml aliquot of each fraction was taken.
Commercially sourced standards and internal standards were used for quantification (see Supplemental Materials). In brief, 20 µl of the plasma samples were protein-precipitated with 80 µl methanol containing all internal standards or were treated for 16 h at 37 °C with 2 µl β-glucuronidase (1,000,000 Units) for deconjugation before protein precipitation with 78 µl methanol containing internal standards. Samples were centrifuged for 20 min, at 4 °C and 17,000 × g, and 40 µl of the supernatants were diluted with 40 µl LC–MS grade water, centrifuged again for 5 min at 4 °C and 17,000 × g and 50 µl supernatant were transferred to LC–MS vials 5 µl of the samples were injected into the LC–MS system.
An Agilent 1290 Infinity II UHPLC coupled with a SCIEX QTRAP6500 + triple quadrupole mass spectrometer was used. Chromatographic separation was achieved on an Agilent Poroshell 120 EC-C18 (1.9 µm, 2.1 × 50 mm) column with A: 0.1% formic acid in water and B: methanol with a flow rate of 0.7 ml/min and a total run time of 8.5 min. Analytes were eluted using a gradient program. The following gradient steps represent gradual changes in % B over time: 5% B from 0 to 0.2 min, 30% B at 2 min, 34% B at 4.8 min, 95% B at 6.5 min, 95% B at 7.5 min and re-equilibrating to 5% B at 7.7 min and 5%B till 8.5 min. A representative chromatogram is shown in supplemental Fig. 2. The scheduled MRM mode was applied for analyte detection in both positive and negative ESI modes (Supplementary Table 4). Calibration curves were constructed with linear regression using weighted (1/x^2) models (detailed information in supplemental methods).
Partial areas under the plasma concentration–time curves from 0 to 3 h (AUC0–3 h), from 0 to 4 h (AUC0–4 h), and from 0 to 8 h (AUC0–8 h) were calculated based on measured concentrations by the linear trapezoidal rule without extrapolation. […] Metabolic ratios (MR) were calculated by dividing the partial AUC of the metabolite by the respective partial AUC of the parent drug. The MRs were used as biomarkers for the individual CYP activities of the study subjects.

## Clc1ccc(-c2cc(Cl)c(Cl)cc2Cl)cc1Cl [PCB118]
[1]
  effect on CYP1A2 activity in HEK293 cells (phenacetin probe): significantly inhibited CYP1A2 activity in a dose-dependent manner
CYP2B6
  t value: 1,020
  β (standardized regression coefficient): 0,255
CYP2B6; PM excl
  t value: 0,839
  β (standardized regression coefficient): 0,227
